Experimental data reported in patent US20230014181A1, “CULTURE SYSTEM AND METHODS FOR IMPROVED MODELING OF NEUROLOGICAL CONDITIONS” (Genentech, Inc., priority 2021, published 2023).

Columns and labels:
[1] = tested on: human iPSC-derived microglia treated with 5 μM soluble Aβ species; assay: Microglia plaque formation (Methoxy-X04-positive structures) with dynamin inhibitors; assay type: cell-based; conditions: 0.6 μM for 24 h
Description: Error bars+/−s.e.m. and n=4 wells; ANOVA ***P<0.001, **P<0.01.
iPSC derived microglia were obtained and screened for microglia marker expression. iPSC microglia were then differentiated. Briefly, iPSCs were treated with BMP, FGF and activin for 2-4 days to induce mesoderm fate, then treated with VEGF and supportive hematopoietic cytokines for 6-10 days to generate hematopoietic progenitors (HPCs). HPCs were seeded onto matrigel-coated flasks, and treated with IL-34, IDE1 (TGF-β1 agonist), and M-CSF for 3-4 weeks to differentiate into microglia. Human iPSC microglia were validated by immunostaining of the following markers: Goat anti-TREM2 (1:500), Mouse anti-MERTK (1:500), Rabbit anti-IBA1 (1:1000), Rabbit anti-TMEM119 (1:500), CD33 (1:500), CX3CR1 (1:500), CD64 (1:500), P2RY12 (1:500), CD32 (1:500), PU.1 (1:500).
To further confirm time-lapsed result, an immunostaining time-course study was performed. Microglia took up Aβs within 30 minutes (FIG. 14D). After 6 hours, small internalized puncta disappeared and a larger, faintly X04 positive, Aβ42 aggregate appeared at the edge near each cell (FIG. 14D). After 1 day, larger Aβ42 aggregates with higher X04 staining intensity were seen next to microglia, and additional microglia began to surround these aggregates. At 4 days X04 dye positive plaque structures were present with surrounding microglia. […]

[2] = tested on: Aβ42 oligomer-induced neural toxicity in human iPSC neurons; assay: Hit validation by IC50 curves in double culture (MAP2, Synapsin 1/2, CUX2, NFL-H); assay type: cell-based; conditions: dose response
Description: (§1) Error bars+/−s.e.m. and n=4 wells. IC50 curves were fitted by Prism software.
as §1
Error bars+/−s.e.m. and n=4 wells. IC50 curves were fitted using Prism software.
To further validate this pathway, several known inhibitors of kinases in the DLK signaling pathway were tested to determine whether they could also be neuroprotective in the AD model.

soluble Aβ42 species = assay: Anti-Aβ antibody co-treatment rescue of soluble Aβ42 species neurotoxicity in iPSC neurons; assay type: cell-based, human
Description: (§2) Error bars+/−s.e.m. and n=4 wells.
To investigate whether AD pathologies can be studied in a controlled, in vitro system of human neurons, cultured human iPSC-derived neurons were treated with synthetic Aβ42 oligomers, prepared by oligomerization of Aβ42 monomers at 4° C. following previously published protocols (FIG. 2A; following Stine et al., 2011). Briefly, AggreSure™ β-Amyloid (1-42), human monomers (Anaspec) were resuspended in DMSO followed by PBS to form a 100 μM solution. Aβ42 monomers were subsequently incubated at 4° C. for 24 hours, then frozen at −80° C. to stop the oligomerization process. Five to six lots of Aβ42 monomers were screened at time and assessed for neurotoxic and the degree of toxicity. About twenty lots for screened in the course of 4 years. For fluorescent Aβ42 oligomer experiments, Beta-Amyloid (1-42), HiLyte™ Fluor 555-labeled, Human (Anaspec) was used. […]
Several additional tau phosphorylation sites observed in AD, S396/404, S217, S235, S400/T403/S404, and T181, were hyperphosphorylated when treated with Aβ42 oligomers (FIGS. 4V-4Z). […] Using this quantitative platform, the half-maximal inhibitory concentration (IC50) for anti-Aβ antibody rescue of MAP2, synapsin, and pTau induction was generated (FIG. 3R).

primary human astrocytes = assay: Astrocyte GFAP expression in response to soluble Aβ species; assay type: cell-based; conditions: astrocytes cultured alone; 3DIV
Description: Error bars+/−s.e.m. and n=4 wells; ANOVA ****P<0.0001, ***P<0.001, **P<0.01.
Astrocytes were then validated. Briefly, primary human astrocytes were detached using Accumax (Innovative Cell Technologies) and seeded onto 384-well plates coated with 1:100 Geltrex™ (Thermofisher) solution for at least 1 hour in a 37° C. cell incubator. Cells were seeded at a density of 2,000 cells/well in Neuron Maintenance Medium (1× BrainPhys™ Basal (StemCell Technology), 1× B27 with Vitamin A, 1×N-2, 5 μg/mL cholesterol, 1 mM creatine, 10 nM β-estradiol, 200 nM ascorbic acid, 1 mM cAMP (Sigma-Aldrich), 20 ng/mL BDNF, 20 ng/mL GDNF, 1 μg/mL Laminin, 0.5 mM GlutaMAX™ (Thermofisher), 1 ng/mL TGF-β1, 1× normocin, 50 U/mL penicillin-streptomycin). Cells were placed in 37° C. cell incubator for 24 hours to allow for attachment. Aβ42 and antibody treatments were added as described in other Examples. Astrogliosis was validated was validated by immunostaining of the following markers: Guinea Pig anti GFAP (1:500), Rabbit anti EAAT1 (1:500), Rabbit anti vimentin (1:500), Rabbit ALDH1L1 (1:500).

[3] = tested on: human iPSC neurons and astrocytes treated with 5 μM sAβ42s; assay: Focused small molecule screen, double culture (neuron, astrocyte), rescue from sAβ42s toxicity, high content imaging; assay type: cell-based; conditions: double culture, 5 μM sAβ42s
Summary of the method: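 Human iPSC neuron–astrocyte cultures given 5 μM sAβ42 oligomers plus compounds at 50, 25, 12.5 and 6.25 μM (10× additions). Fixed cells immunostained for MAP2, synapsin 1/2, CUX2 and beta III tubulin, imaged by confocal high-content microscopy; % rescue computed, ≥30% in any readout scored as hit.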

[4] = tested on: human iPSC neurons, astrocytes and microglia treated with 5 μM sAβ42s; assay: Focused small molecule screen, triple culture (neuron, astrocyte, microglia), rescue from sAβ42s toxicity; assay type: cell-based
Summary of the method: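 Human iPSC neuron-astrocyte co-cultures (8 weeks old), with or without added iPSC microglia (8,000 cells/well), were exposed to 5 μM sAβ42s together with compounds at up to four concentrations: 50–6.25 μM for double cultures and 50–0.78 μM for triple cultures. Rescue of MAP2, synapsin 1/2, CUX2 count or axon (NFL-H/βIII-tubulin) readouts of ≥30% was scored as a hit.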

[5] = tested on: human iPSC-derived neurons; assay: 21-day time course of single doses of soluble Aβ42 species on iPSC neurons; assay type: cell-based; conditions: 1.25 μM
Description: To investigate whether AD pathologies can be studied in a controlled, in vitro system of human neurons, cultured human iPSC-derived neurons were treated with synthetic Aβ42 oligomers, prepared by oligomerization of Aβ42 monomers at 4° C. following previously published protocols (FIG. 2A; following Stine et al., 2011). Briefly, AggreSure™ β-Amyloid (1-42), human monomers (Anaspec) were resuspended in DMSO followed by PBS to form a 100 μM solution. Aβ42 monomers were subsequently incubated at 4° C. for 24 hours, then frozen at −80° C. to stop the oligomerization process. Five to six lots of Aβ42 monomers were screened at time and assessed for neurotoxic and the degree of toxicity. […] For fluorescent Aβ42 oligomer experiments, Beta-Amyloid (1-42), HiLyte™ Fluor 555-labeled, Human (Anaspec) was used. For pHrodo experiments, Beta-Amyloid (1-42) buman was labeled with pHrodo™ Green AM Intracellular pH Indicator (Invitrogen) according to manufacturer's protocol.
Prior to experimentation, media volume in wells containing neurons was equalized with liquid handling automation (Bravo) in order to ensure precise control of concentrations. All Aβ42 oligomers, anti-Aβ, small molecules, inflammatory cytokines were prepared at 10× concentration and added to Neuronal Culture Media at an appropriate volume. […]

[6] = tested on: primary rat cortical neurons; assay: Aβ42 oligomer toxicity in primary rat cortical neurons; assay type: cell-based; conditions: several lots
Description: as §2
The preps were determined to contain a heterogeneous mixture of both soluble oligomer and fibrils, and thus were referred to as “soluble Aβ42 species” (Aps).

O=C(N/N=C/c1ccc(O)c(O)c1)c1cc2ccccc2cc1O [Dynasore]
decrease of plaque formation (Methoxy-X04-positive plaque-like structures) [1]: approximately 4 fold

CCCCCCCCNC(=O)/C(C#N)=C/c1cn(CCCN(C)C)c2ccccc12 [Dynole 34-2]
decrease of plaque formation (Methoxy-X04-positive plaque-like structures) [1]: approximately 4 fold

Nc1ncc(C(=O)NC2CN(C(=O)C3CC3)C2)c2ccc(-c3cccc(F)c3)nc12 [GNE-495]
neuronal protection against Aβ [2]: conferred neuronal protection against Aβ in a dose-dependent manner

Cc1cc(NC(=O)c2cccc(NC(=O)/C=C/CN(C)C)c2)ccc1Nc1nccc(-c2cccnc2)n1 [JNK-IN-8]
neuronal protection against Aβ [2]: conferred neuronal protection against Aβ in a dose-dependent manner

Nc1ccc(-c2cnc(N)c(-c3ccc(Cl)cc3)c2)cn1 [PF06260933]
neuronal protection against Aβ [2]: conferred neuronal protection against Aβ in a dose-dependent manner

Cc1cc(Nc2cc(N3CCN(C)CC3)nc(Sc3ccc(NC(=O)C4CC4)cc3)n2)n[nH]1 [VX-680]
neuronal protection against Aβ [2]: conferred neuronal protection against Aβ in a dose-dependent manner

Crenezumab: anti-Aβ antibody
phospho-Tau p396-404 and p400-403-404 upregulation (soluble Aβ42 species; NAG-NSC Line 2): blocked | loss of dendrites (MAP2) and synapses (synapsin) (soluble Aβ42 species; NAG-NSC Line 2 and primary astrocytes, 5 μM soluble Aβ species, 7 days): rescued | GFAP upregulation by soluble Aβ species (primary human astrocytes): blocked

MDL 28170
% B3T rescue ([3]; 6.25 μM compound): 18% | % Cux2 rescue ([3]; 6.25 μM compound): 81% | % MAP2 rescue ([3]; 6.25 μM compound): 33% | % Synapse rescue ([3]; 6.25 μM compound): 10% | % B3T rescue ([3]; 12.5 μM compound): 22% | % Cux2 rescue ([3]; 12.5 μM compound): 74% | % MAP2 rescue ([3]; 12.5 μM compound): 33% | % Synapse rescue ([3]; 12.5 μM compound): 9% | % B3T rescue ([3]; 25 μM compound): 25% | % Cux2 rescue ([3]; 25 μM compound): 84% | % MAP2 rescue ([3]; 25 μM compound): 36% | % Synapse rescue ([3]; 25 μM compound): 11% | % B3T rescue ([3]; 50 μM compound): 47% | % Cux2 rescue ([3]; 50 μM compound): 57% | % MAP2 rescue ([3]; 50 μM compound): 26% | % Synapse rescue ([3]; 50 μM compound): 23% | % B3T rescue ([4]; 0.78 μM compound): 30% | % MAP2 rescue ([4]; 0.78 μM compound): 19% | % Synapse rescue ([4]; 0.78 μM compound): 10% | % B3T rescue ([4]; 12.50 μM compound): 33% | % MAP2 rescue ([4]; 12.50 μM compound): 31% | % Synapse rescue ([4]; 12.50 μM compound): 8% | % B3T rescue ([4]; 50.00 μM compound): 73% | % MAP2 rescue ([4]; 50.00 μM compound): 47% | % Synapse rescue ([4]; 50.00 μM compound): 41%

soluble Aβ42 species: heterogeneous mixture of soluble oligomer and fibrils made from synthetic Aβ42 monomers at 4° C.
dendrite or axon reduction [5]: no effect on dendrite or axon reduction | reduction in dendrites or synapses [6]: did not show reduction in dendrites or synapses
